Here are results for 19 compounds from ChEMBL document CHEMBL1909540, “Synthesis and antimycobacterial evaluation of 3a,4-dihydro-3H-indeno [1,2-c] pyrazole-2-carboxamide analogues” (Eur J Med Chem, 2011).

Structures are written as SMILES. Values after ≈ are worked out from the molar mass of the structure shown.

One series concerns Vero. Nature of the series: Cytotoxicity against african green monkey Vero cells after 72 hrs by MTT assay. The class given is cell-based. The settings on record: Chlorocebus sabaeus.
Series [1] concerns Mycobacterium tuberculosis. Nature of the series: Antitubercular activity against Mycobacterium tuberculosis H37Rv by two fold serial dilution method. The class given is functional.
Series [2] is described as follows: Safety index, ratio of IC50 for african green monkey Vero cells to MIC for Mycobacterium tuberculosis H37Rv. Type of series: toxicity, cell-based.

What is called IC50 is the concentration that inhibits the measured activity by half. As a reminder, the MIC is the lowest concentration that inhibits growth of the organism. Compound `COc1cc2c(cc1OC)C1=NN(C(=O)Nc3ccc([N+](=O)[O-])cc3)C(c3ccncc3)C1C2` (stereo not drawn) yielded an IC50 in the series with Vero of 68 µM. Besides, the minimum inhibitory concentration (MIC) in series [1] worked out at 6.8 µM (≈ 3.12 µg/mL).
The compound `COc1cc2c(cc1OC)C1=NN(C(=O)Nc3ccc(Cl)cc3)C(c3ccncc3)C1C2` (stereo not drawn) returned a half-inhibitory concentration (IC50) with Vero greater than 139 µM. In addition, in series [1], inhibition of growth (MIC) required 6.96 µM (≈ 3.12 µg/mL).
Consider `COc1cc2c(cc1OC)C1=NN(C(=O)Nc3ccc(Cl)cc3)C(c3ccccc3Cl)C1C2` (stereo not drawn), for which the minimum inhibitory concentration (MIC) in series [1] is 13.9 µM (≈ 6.71 µg/mL).
As to `COc1cc2c(cc1OC)C1=NN(C(=O)Nc3ccc(Cl)cc3)C(c3ccc(F)cc3)C1C2` (stereo not drawn), the IC50 in the series with Vero is greater than 134 µM. Also, the MIC in series [1] came out at 0.83 µM (≈ 0.387 µg/mL). Besides, in series [2], the selectivity ratio is greater than 161.
In series [1], `COc1ccc(C2C3Cc4cc(OC)c(OC)cc4C3=NN2C(=O)Nc2ccc(Cl)cc2)cc1OC` (stereo not drawn) gave a minimum inhibitory concentration (MIC) of 9.8 µM (≈ 4.98 µg/mL).
Take `COc1cc2c(cc1OC)C1=NN(C(=O)Nc3ccc(Cl)cc3)C(c3ccccc3)C1C2` (stereo not drawn): the 50% inhibitory concentration (IC50) in the series with Vero was greater than 139 µM. The same compound registered an MIC in series [1] of 6.97 µM (≈ 3.12 µg/mL).
Take `COc1ccc(C2C3Cc4cc(OC)c(OC)cc4C3=NN2C(=O)Nc2ccc(Cl)cc2)cc1` (stereo not drawn): the MIC in series [1] was found to be 10.5 µM (≈ 5 µg/mL).
On to `COc1cc2c(cc1OC)C1=NN(C(=O)Nc3ccc([N+](=O)[O-])cc3)C(c3ccccc3Cl)C1C2` (stereo not drawn), for which inhibition of growth in series [1] (MIC) required 12.7 µM (≈ 6.25 µg/mL).
In the series with Vero, `COc1cc2c(cc1OC)C1=NN(C(=O)Nc3ccc([N+](=O)[O-])cc3)C(c3ccc(F)cc3)C1C2` (stereo not drawn) gave an IC50 of 94.8 µM. In addition, in series [1], the MIC turned out to be 3.16 µM (≈ 1.51 µg/mL).
`COc1ccc(C2C3Cc4cc(OC)c(OC)cc4C3=NN2C(=O)Nc2ccc([N+](=O)[O-])cc2)cc1OC` (stereo not drawn): the lowest concentration to inhibit growth in series [1] (MIC) was 12.1 µM (≈ 6.25 µg/mL).
In the series with Vero, `COc1cc2c(cc1OC)C1=NN(C(=O)Nc3ccc([N+](=O)[O-])cc3)C(c3ccccc3)C1C2` (stereo not drawn) showed a half-inhibitory concentration (IC50) of 51.1 µM. It took 6.81 µM (≈ 3.12 µg/mL) to inhibit growth in series [1] (MIC).
As for `COc1ccc(C2C3Cc4cc(OC)c(OC)cc4C3=NN2C(=O)Nc2ccc([N+](=O)[O-])cc2)cc1` (stereo not drawn), the MIC in series [1] came out at 12.8 µM (≈ 6.24 µg/mL).
For the compound `COc1cc2c(cc1OC)C1=NN(C(N)=O)C(c3ccncc3)C1C2` (stereo not drawn), in series [1], the MIC stood at 11.8 µM (≈ 3.99 µg/mL).
On the same count and under the same terms, the result for `COc1cc2c(cc1OC)C1=NN(C(N)=O)C(c3ccccc3Cl)C1C2` (stereo not drawn) reads 10.8 µM (≈ 4 µg/mL).
In turn, `COc1cc2c(cc1OC)C1=NN(C(N)=O)C(c3ccc(F)cc3)C1C2` (stereo not drawn) had an IC50 in the series with Vero of 177 µM. The same compound displayed an MIC in series [1] of 8.44 µM (≈ 3 µg/mL).
In turn, `COc1ccc(C2C3Cc4cc(OC)c(OC)cc4C3=NN2C(N)=O)cc1OC` (stereo not drawn) registered a minimum inhibitory concentration (MIC) in series [1] of 10.1 µM (≈ 3.99 µg/mL).
Still for that read-out and setting: as for `COc1cc2c(cc1OC)C1=NN(C(N)=O)C(c3ccccc3)C1C2` (stereo not drawn), the figure is 11.8 µM (≈ 3.99 µg/mL); as for `COc1ccc(C2C3Cc4cc(OC)c(OC)cc4C3=NN2C(N)=O)cc1` (stereo not drawn), 10.9 µM (≈ 3.99 µg/mL).
Compound `NNC(=O)c1ccncc1` [ISONIAZID] showed an IC50 in the series with Vero greater than 456 µM. The same compound came in with an MIC in series [1] of 0.56 µM (≈ 0.0768 µg/mL).
